Results as given in patent publication US7049461B1, “Treatment of leukemia” (University of Central Florida, priority 2001, dated 2006).

Tests used:
mice = conditions: cited from earlier work
[1] = tested on: human leukemia cancer cells (ATCC JURK); test: Cytotoxicity assay: growth inhibition of Jurkat cells (MTS/PMS); format: cell-based; conditions: approximately 48 hours, test concentration not given
Protocol: The activity against leukemia cancer cells of the compounds (as earlier reported) was realized by the following procedure which determines the inhibitory effect of test samples on the growth of human leukemia cancer cells (ATCC JURK). The Jurkat cells are grown in RPMI 1640 media+10% Fetal bovine serum+1% Antibiotic/Antimycotic+1% of HEPES Buffer (1M)+1% Sodium Purivate (100 mM)+2.5% D-(+) Glucose Solution for approximately 48 hours at 37° C./5% CO2 […] compound.
Growth/Non-Growth of the cells (e.g., cell density) is determined using Promega's MTS/PMS assay system. MTS (3-(4,5-dimethylthiazol-2-yl)-5-(3-carboxymethoxyphenyl)-2-(4-sulfophenyl)-2H-tetrazolium, inner salt) is an aqueous compound that is reduced to soluble formazan by the presence of NADH formed by dehydrogenases present within the Jurkat cells. The absorbance of the formazan can be measured at 490 nm and is directly proportional to the number of living cells present in the culture. PMS (Phenazine Methosulfate) is added an electron coupling reagent and greatly increases the rate of reduction. […]
In order to establish the accuracy of this assay a Positive Control consisting of 50 μM Methotrexate should […] the net absorbance to less than 90% of the Negative Control (Jurkat cells are somewhat resistant to methotrexate) is utilized.

[2] = Solubility in organic solvents; format: physicochemical
Stability in solutions = format: physicochemical; conditions: solution heated or stored for a long time; forms OF-12

Nc1ccn([C@@H]2O[C@H](CO)[C@@H](O)[C@@H]2O)c(=O)n1 [cytarabine]
toxicity in mice LD50 (mice): 826 mg/kg

CCOc1ccc(C(=O)CC(O)(NN=C2c3ccccc3-c3ccccc32)C(=O)OC)cc1 (stereo not shown) [OF-13, 4-(4-Ethoxy-phenyl)-2-(N′-fluoren-9-ylidene-hydrazino)-2-hydroxy-4-oxo-butyric acid methyl ester]
percent activity against human leukemia [1]: 97%
Solubility ([2]; in DMSO, DMFA, dichloroethane, acetonitrile): highly soluble
Solubility ([2]; in hexane): insoluble
Stability in solutions (Stability in solutions): not stable in solutions and decomposes quickly

COc1cccc2c1C(=O)c1c(O)c3c(c(O)c1C2=O)C[C@@](O)(C(C)=O)C[C@@H]3O[C@H]1C[C@H](N)[C@H](O)[C@H](C)O1 [daunorubicin]
toxicity in mice LD50 (mice): 26 mg/kg

CCOc1ccc(C(Cl)=CC(=NN=C2c3ccccc3-c3ccccc32)C(=O)OC)cc1 [3F-19, 4-Chloro-4-(4-ethoxy-phenyl)-2-(fluoren-9-ylidene-hydrazono)-but-3-enoic acid methyl ester]
percent activity against human leukemia [1]: 100%
